pEC50, pIC50: −log10 of the molar value.
Experiments:
[1] = target: NL20 human bronchial epithelial cells expressing human Z-AAT (Homo sapiens (Human), UniProt P01009, E366K); test: AAT Function Assay (MSD Assay NL20-SI Cell Line); format: cell-based; details: functionally active AAT (AAT-hNE complex, MSD) in supernatant of NL20 cells expressing human Z-AAT; read-out: NL20 Functional EC50
Outline: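 Secreted active Z-AAT was measured by MSD electrochemiluminescence: supernatants (45-fold total dilution) were incubated with human neutrophil elastase to form AAT–elastase complexes, captured by goat anti-AAT and detected with labelled anti-elastase. Cells were doxycycline-induced (0.1 μM) NL20 bronchial cells treated with compound overnight; M-AAT standard curve.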

[2] = target: purified Z-AAT protein from human plasma (Homo sapiens (Human), UniProt P01009, E366K); test: Biochemical Assay (Z-AAT Elastase Activity Assay); details: purified Z-AAT pre-incubated with compound 1 hour, then human neutrophil elastase and fluorescent substrate
Outline: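 Purified plasma Z-AAT (20 nM) preincubated with compounds 1 h at room temperature, then 3 nM human neutrophil elastase added in PBS + 0.01% BRIJ35 for 30 min to form suicide complex. Residual elastase activity read immediately by fluorescence after adding 300 μM MeOSuc-AAPV-AMC substrate solution.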

NL20 human bronchial epithelial cells expressing human Z-AAT, sequence (P01009 25-418 E366K limits assumed): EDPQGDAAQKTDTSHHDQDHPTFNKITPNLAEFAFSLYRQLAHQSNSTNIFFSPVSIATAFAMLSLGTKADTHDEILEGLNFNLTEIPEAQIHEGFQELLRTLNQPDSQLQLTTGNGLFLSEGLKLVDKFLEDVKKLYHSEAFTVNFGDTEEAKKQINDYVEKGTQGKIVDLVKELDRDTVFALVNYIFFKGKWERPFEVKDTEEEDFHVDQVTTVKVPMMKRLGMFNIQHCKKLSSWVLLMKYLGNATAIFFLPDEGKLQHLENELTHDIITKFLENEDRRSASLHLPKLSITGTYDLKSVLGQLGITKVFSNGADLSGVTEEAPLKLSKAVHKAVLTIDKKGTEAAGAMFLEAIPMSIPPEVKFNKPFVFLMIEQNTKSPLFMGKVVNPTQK
purified Z-AAT protein from human plasma, sequence (P01009 25-418 E366K limits assumed): as above

pEC50 [1] | pIC50 [2] | Compound
< 5.70 | < 5.30 | CNS(=O)(=O)N1CC(c2c(C(C)C)n(-c3ccc(F)c(C)c3)c3ccc(O)cc23)C1 [Compound 213, 3-(1-(4-fluoro-3-methylphenyl)-5-hydroxy-2-isopropyl-1H-indol-3-yl)-N-methylazetidine-1-sulfonamide]
< 5.70 | < 4.52 | CC(=O)NS(=O)(=O)N1CC(c2c(C(C)C)n(-c3ccc(F)c(C)c3)c3ccc(O)cc23)C1 [Compound 214, N-((3-(1-(4-fluoro-3-methylphenyl)-5-hydroxy-2-isopropyl-1H-indol-3-yl)azetidin-1-yl)sulfonyl)acetamide]
< 5.70 | < 5.30 | Cc1cc(-n2c(C(C)C)c([C@H]3C[C@@H](C#N)C3)c3cc(O)ccc32)ccc1F [Compound 215, 3-[1-(4-fluoro-3-methyl-phenyl)-5-hydroxy-2-isopropyl-indol-3-yl]cyclobutanecarbonitrile]
< 5.70 | < 5.30 | Cc1cc(-n2c(C(C)C)c([C@@H]3COC[C@@H]3C#N)c3cc(O)ccc32)ccc1F [Compound 216]
5.70 to 6.30 | < 5.30 | Cc1cc(-n2c(C(C)C)c([C@H]3C[C@@H](c4nn[nH]n4)C3)c3cc(O)ccc32)ccc1F [Compound 217, 1-(4-fluoro-3-methyl-phenyl)-2-isopropyl-3-[3-(2H-tetrazol-5-yl)cyclobutyl]indol-5-ol]
< 5.70 | < 4.52 | Cc1cc(-n2c(C3CCOCC3)c([C@H]3C[C@H](c4nn[nH]n4)C3)c3cc(O)ccc32)ccc1F [Compound 218, 1-(4-fluoro-3-methyl-phenyl)-2-tetrahydropyran-4-yl-3-[3-(2H-tetrazol-5-yl)cyclobutyl]indol-5-ol]
< 5.70 | < 5.30 | Cc1cc(-n2c(C(C)C)c([C@H]3C[C@@H](C(=O)NS(C)(=O)=O)C3)c3cc(O)ccc32)ccc1F [Compound 219, Cis-3-[1-(4-fluoro-3-methyl-phenyl)-5-hydroxy-2-isopropyl-indol-3-yl]-N-methylsulfonyl-cyclobutanecarboxamide]
< 5.70 | < 5.30 | Cc1cc(-n2c(C(C)C)c([C@H]3C[C@H](C(=O)NS(C)(=O)=O)C3)c3cc(O)ccc32)ccc1F [Compound 220, trans-3-[1-(4-fluoro-3-methyl-phenyl)-5-hydroxy-2-isopropyl-indol-3-yl]-N-methylsulfonyl-cyclobutanecarboxamide]
5.70 to 6.30 | < 4.52 | Cc1cc(-n2c(C3CCOCC3)c([C@H]3C[C@H](c4noc(=O)[nH]4)C3)c3cc(O)ccc32)ccc1F [Compound 223, Trans-3-[3-[1-(4-fluoro-3-methyl-phenyl)-5-hydroxy-2-tetrahydropyran-4-yl-indol-3-yl]cyclobutyl]-4H-1,2,4-oxadiazol-5-one]
< 5.70 | < 4.52 | Cc1cc(-n2c(C3CCOCC3)c([C@H]3C[C@@H](c4noc(=O)[nH]4)C3)c3cc(O)ccc32)ccc1F [Compound 224, cis-3-[3-[1-(4-fluoro-3-methyl-phenyl)-5-hydroxy-2-tetrahydropyran-4-yl-indol-3-yl]cyclobutyl]-4H-1,2,4-oxadiazol-5-one]
< 5.70 | < 4.52 | Cc1cc(-n2c(C(C)C)c([C@H]3C[C@H](CO)C3)c3cc(O)ccc32)ccc1F [Compound 225, Trans-1-(4-fluoro-3-methyl-phenyl)-3-[3-(hydroxymethyl)cyclobutyl]-2-isopropyl-indol-5-ol]
< 5.70 | < 4.52 | Cc1cc(-n2c(C(C)C)c([C@H]3C[C@@H](CO)C3)c3cc(O)ccc32)ccc1F [Compound 226, cis-1-(4-fluoro-3-methyl-phenyl)-3-[3-(hydroxymethyl)cyclobutyl]-2-isopropyl-indol-5-ol]
< 5.70 | < 4.52 | Cc1cc(-n2c(C(C)C)c([C@@H]3CC[C@@H]3CO)c3cc(O)ccc32)ccc1F [Compound 227]

From patent publication US20230339915A1 (Vertex Pharmaceuticals Incorporated, priority 2020, published 2023)
